Data taken from US12508247B2, “Controlled release injectable ondansetron formulations” (SHILPA MEDICARE LIMITED, priority 2019, dated 2025).
Where two headings read alike, the source gives them in different places.

Assay: Fasting single dose PK study in dogs: plasma ondansetron after intravenous bolus of marketed ondansetron injection (reference)
Format: in vivo
Conditions: fasted male Beagle dogs; for C0: 2 mg/mL solution; for Vd: read-out: Vss
Description: Male Beagle dogs were fasted are divided into six groups as G1, G2, G3, G4, G5 and G6 each consisting of four dogs.
Blood samples were collected from each IM route dogs at 0 (pre-dose), 0.5, 1, 2, 4, 8, 16, 24, 36, 48, 72, 96, 120, 144, 168 and 240 h post-dose; for IV route dogs, blood samples were collected at 0 (pre-dose), 0.167, 0.33, 0.5, 0.75, 1, 2, 4, 8, 12 and 24 h post-dose and analysed for ondansetron in plasma and calculated using the noncompartmental analysis tool of the validated Phoenix WinNonlin software (Version 8.0). The summary of plasma pharmacokinetics parameters of ondansetron for G1 and G2 animals is summarized in Table—2 (FIGS. 1, 2) and G3, G4, G5 and G6 (FIGS. 3, 4, 5 and 6) animals is summarized in Table— 3.

C0 (G1, IV bolus 4 mg/dog): 110 ng/mL | AUC(0-inf) (G1, IV bolus 4 mg/dog): 107 ng·h/mL | AUC(0-t) (G1, IV bolus 4 mg/dog): 106 ng·h/mL | MRT last (G1, IV bolus 4 mg/dog): 1.12 h | clearance (G1, IV bolus 4 mg/dog): 644 mL/min | half-life (G1, IV bolus 4 mg/dog): 52.7 min | Vd (G1, IV bolus 4 mg/dog): 40.3 L | C0 (G2, IV bolus 24 mg/dog): 828 ng/mL | AUC(0-inf) (G2, IV bolus 24 mg/dog): 716 ng·h/mL | AUC(0-t) (G2, IV bolus 24 mg/dog): 715 ng·h/mL | MRT last (G2, IV bolus 24 mg/dog): 1.17 h | clearance (G2, IV bolus 24 mg/dog): 563 mL/min | half-life (G2, IV bolus 24 mg/dog): 76.8 min | Vd (G2, IV bolus 24 mg/dog): 36.3 L
Structure (SMILES): Cc1nccn1CC1CCc2c(c3ccccc3n2C)C1=O (centres unmarked) [Ondansetron]
